Measurements reported in publication PMC7924852, “The Emericellipsins A–E from an Alkalophilic Fungus Emericellopsis alkalina Show Potent Activity against Multidrug-Resistant Pathogenic Fungi” (Journal of Fungi, 2021).

What was measured:
[1] = tested on: Aspergillus niger ATCC 16404; assay: Disc-diffusion antifungal assay; format: cell-based; conditions: 40 µg/disc; A. niger ATCC 16404
A. niger 1133 m = assay: Disc-diffusion antifungal assay; format: cell-based, Aspergillus niger; conditions: 40 µg/disc, pathogenic clinical isolate
A. fumigatus VKM F-37 = assay: Disc-diffusion antifungal assay; format: cell-based, Aspergillus fumigatus; conditions: 40 µg/disc
A. terreus 3 K [2] = assay: Disc-diffusion antifungal assay; format: cell-based; conditions: 40 µg/disc
[3] = tested on: clinical isolates of Candida; assay: Disc-diffusion antifungal assay, clinical yeast isolates; format: cell-based; conditions: range over clinical isolates of Candida (Figure S2)
[4] = tested on: reference and clinical strains of Aspergillus; assay: Disc-diffusion antifungal assay, Aspergillus strains; format: cell-based; conditions: range over clinical isolates of Aspergillus (Figure S2)
A. terreus 3 K [5] = assay: Broth two-fold microdilution MIC (CLSI); format: cell-based; conditions: A. terreus 3 K; RPMI 1640 pH 7.0, 35 °C, 48 h
Candida albicans 1402 = assay: Broth microdilution MIC and MFC (CLSI); format: cell-based
C. glabrata 1402 = assay: Broth microdilution MIC and MFC (CLSI); format: cell-based
C. parapsilosis 571 = assay: Broth microdilution MIC and MFC (CLSI); format: cell-based
[6] = tested on: Cryptococcus neoformans 297; assay: Broth microdilution MIC and MFC (CLSI); format: cell-based
C. laurentii 325m = assay: Broth microdilution MIC and MFC (CLSI); format: cell-based, Cr. laurentii
[7] = tested on: clinical yeast isolates (Candida, Cryptococcus); assay: Broth microdilution MIC/MFC, pathogenic multidrug yeast strains; format: cell-based; conditions: isolates of C. albicans, C. glabrata and C. neoformans
[8] = tested on: B16 (mouse melanoma cell line); assay: MTT cytotoxicity assay; format: cell-based; conditions: 72 h, three experiments, each in triplicate
Method: (§1) Experiments for determining the cytotoxic activity of the compound in MTT assays were performed as previously described. The following tumor cell lines were used for this study: HCT-116 (colon cancer cell line), B16 (mouse melanoma cell line), K-562 (leukemia cell line), MDA-MB-231 (breast cancer line), and MCF-7 (breast cancer cell). Human postnatal fibroblasts were used as a normal cell line, and doxorubicin was used as a positive control. The cell lines were cultured in Dulbecco modified Eagle’s medium supplemented with 5% fetal calf serum, 2 mM Lglutamine, 100 U/mL penicillin, and […] streptomycin at 37 °C, 5% CO2 in a humidified atmosphere. Experiments were carried out on cells in the logarithmic phase of growth. The peptide was dissolved in DMSO as a 10 mM stock solution, followed by serial dilutions in water immediately before the experiment. Briefly, cells (5 × 10^3 in […] of culture medium) were plated in a 96-well plate and treated with 0.1% DMSO (blank control) or with […] of the peptide (0.10‒50 μM; each concentration in duplicate) for 72 h. After incubation with peptide, […] of aqueous MTT solution (3-(4,5-dimethylthiazol-2-yl)-2,5-diphenyltetrazolium bromide, 5 mg/mL) were added into each well for 2‒3 h. Formazan was dissolved in DMSO, and the absorbance at 570 nm was measured. The cytotoxicity at a given EmiA concentration was calculated as the percentage of absorbance in wells with peptide-treated cells compared to that of blank control cells (100%). The IC50 (50% growth inhibitory concentration) was defined as the concentration of EmiA that inhibited MTT conversion by 50%. All the experiments were repeated three times, each time in triplicate. EmiA was tested at a range of concentrations, 0.1‒10 μM.

[9] = tested on: HCT-116 (colon cancer cell line); assay: MTT cytotoxicity assay; format: cell-based; conditions: 72 h, three experiments, each in triplicate
Method: as §1

[10] = tested on: HPF (human postnatal fibroblasts, normal cell line); assay: MTT cytotoxicity assay; format: cell-based
Method: as §1

[11] = tested on: MCF-7 (breast cancer cell); assay: MTT cytotoxicity assay; format: cell-based; conditions: 72 h, three experiments, each in triplicate
Method: as §1

[12] = tested on: MDA-MB-231 (breast cancer line); assay: MTT cytotoxicity assay; format: cell-based; conditions: 72 h, three experiments, each in triplicate
Method: as §1

[13] = tested on: K-562 (leukemia cell line); assay: MTT cytotoxicity assay; format: cell-based; conditions: 72 h, three experiments, each in triplicate
Method: Experiments for determining the cytotoxic activity of the compound in MTT assays were performed as previously described [24]. The following tumor cell lines were used for this study: HCT-116 (colon cancer cell line), B16 (mouse melanoma cell line), K-562 (leukemia cell line), MDA-MB-231 (breast cancer line), and MCF-7 (breast cancer cell). […] The cell lines were cultured in Dulbecco modified Eagle’s medium supplemented with 5% fetal calf serum, 2 mM Lglutamine, 100 U/mL penicillin, and 100 mg/mL streptomycin at 37 °C, 5% CO2 in a humidified atmosphere. Experiments were carried out on cells in the logarithmic phase of growth. The peptide was dissolved in DMSO as a 10 mM stock solution, followed by serial dilutions in water immediately before the experiment. Briefly, cells (5 × 10^3 in 190 mL of culture medium) were plated in a 96-well plate and treated with 0.1% DMSO (blank control) or with 10 mM of the peptide (0.10‒50 μM; each concentration in duplicate) for 72 h. After incubation with peptide, 20 mL of aqueous MTT solution (3-(4,5-dimethylthiazol-2-yl)-2,5-diphenyltetrazolium bromide, 5 mg/mL) were added into each well for 2‒3 h. Formazan was dissolved in DMSO, and the absorbance at 570 nm was measured. […] All the experiments were repeated three times, each time in triplicate.

Hela cell line = conditions: previous study; cited from earlier work
Source text: (§2) Accordingly, despite the high IC50 values for this molecule, fairly significant amounts of antibiotic are required to suppress the cell growth in vitro. The calculated therapeutic index value is sufficiently high due to a low cytotoxicity level for normal cells, which is an undeniable advantage over both pre-scorubicin and most other antitumor compou ...

HepG2 cell line = conditions: previous study; cited from earlier work
Source text: as §2

In the case of “Methyldecanoyl-MePro-AHMOD-Ala-Aib-Ile-Iva-βAla-Alaol-Glyol [EmiA, emericellipsin A, nonribosomal lipopeptaibol, major compound of E. alkalina VKPM F1428]”, the “Zone of Inhibition” value [1] is reported as 25 ± 0.21 mm, the “Zone of Inhibition” value (A. niger 1133 m) is reported as 18 ± 0.27 mm and the “Zone of Inhibition” value (A. fumigatus VKM F-37) is reported as 20 ± 0.3 mm. The “Zone of Inhibition” value (A. terreus 3 K [2]) was 12 ± 0.25 mm, the inhibition zones [3] was 20–25 mm and the inhibition zones [4] was 15–19 mm. The “Minimal Inhibitory Concentration (MIC)” value (A. terreus 3 K [5]) was 0.5 µg/mL, the MFC (Candida albicans 1402; Candida albicans 1402, lowest concentration causing 95% death, plated on PDA agar) was 4 µg/mL and the MIC (Candida albicans 1402; Candida albicans 1402 clinical isolate, RPMI 1640 pH 7.0, 35 °C, 24 h) was 2 µg/mL. For the same substance, the MFC (C. glabrata 1402; C. glabrata 1402, lowest concentration causing 95% death) was 0.5 µg/mL, the MIC (C. glabrata 1402; C. glabrata 1402 clinical isolate, RPMI 1640 pH 7.0, 35 °C, 24 h) was 0.25 µg/mL and the MFC (C. parapsilosis 571; C. parapsilosis 571, lowest concentration causing 95% death) was 1 µg/mL. It also gave an MIC (C. parapsilosis 571; C. parapsilosis 571 clinical isolate, RPMI 1640 pH 7.0, 35 °C, 24 h) of 1 µg/mL, an MFC ([6]; Cryptococcus neoformans 297, lowest concentration causing 95% death) of 0.5 µg/mL and an MIC ([6]; Cryptococcus neoformans 297 clinical isolate, RPMI 1640 pH 7.0, 35 °C, 24 h) of 0.5 µg/mL. For the same substance, the MIC (C. laurentii 325m; C. laurentii 325m clinical isolate, RPMI 1640 pH 7.0, 35 °C, 24 h) was 0.5 µg/mL, the MFC (C. laurentii 325m; C. laurentii 325m, lowest concentration causing 95% death) was 0.5 µg/mL and the MIC/MFCs range [7] was 0.25 to 4 µg/mL. For the same substance, the IC50 [8] was 16 ± 2.08 µM, the IC50 [9] was 2.3 ± 0.3 µM and the IC50 ([10]; HPF normal fibroblasts, MTT, 72 h, three experiments, each in triplicate) was 11.5 ± 1.5 µM. The “antiproliferative activity inferior to doxorubicin” value ([10]; interaction with PFH, relative to doxorubicin) was 60 times, the IC50 [11] was 11 ± 1.2 µM and the IC50 [12] was 8 ± 1.04 µM. For the same substance, the IC50 [13] was 1 ± 0.14 µM, the EC50 (Hela cell line) was under 0.5 µM and the EC50 (HepG2 cell line) was 2.8 µM.
